This passage reports Kd results from ChEMBL document CHEMBL1149946, “The conformation of cyclosporin a bound to cyclophilin is altered (once again) following binding to calcineurin: an analysis of receptor-ligand-receptor interactions” (Bioorg Med Chem Lett, 1992).

A short description of this assay: Compound was evaluated for its binding affinity towards cyclophilin (Cyp).

As for `C/C=C/CC(C)(C)[C@@H](O)[C@H]1C(=O)N[C@@H](CC)C(=O)N(C)CC(=O)N(C)[C@@H](CC(C)C)C(=O)N[C@@H](C(C)C)C(=O)N(C)[C@@H](CC(C)C)C(=O)N[C@@H](C)C(=O)N[C@@H](C)C(=O)N(C)[C@@H](CC(C)C)C(=O)N(C)[C@@H](CC(C)C)C(=O)N(C)[C@@H](C(C)C)C(=O)N1C`, binding was characterised by a dissociation constant (Kd) of 500 nM.
The figure for `C/C=C/C[C@@H](C)[C@H](O)[C@H]1C(=O)N[C@@H](CC)C(=O)N(C)CC(=O)N(C)[C@@H](CC(C)C)C(=O)N[C@H](C(C)C)C(=O)N(C)CC(=O)N[C@@H](C)C(=O)N[C@H](C)C(=O)N(C)[C@H](CC(C)C)C(=O)N(C)[C@H](CC(C)C)C(=O)N(C)[C@H](C(C)C)C(=O)N1C` is 13 nM.
